Twelve molecules from ChEMBL document CHEMBL1201862, “PubChem BioAssay data set” (2004) can be followed below.

Common to all, as to test: NCI-60 cell line screen, 48 h
For test [1], the system named is A498.
Test [2] relates to ACHN.
Test [3] relates to DU-145.
The subject of test [4] is HL-60.
Test [5] relates to KM12.
Test [6] concerns MDA-MB-435.
Test [7] relates to NCI-H226.
Test [8] concerns NCI-H522.
Test [9] concerns NCI/ADR-RES.
The subject of test [10] is OVCAR-3.
The subject of test [11] is SF-268.
The subject of test [12] is SF-295.
Test [13] concerns SK-MEL-28.
Test [14] relates to SK-OV-3.
The subject of test [15] is SNB-75.
Test [16] deals with TK-10.
For test [17], the system named is UACC-62.
Test [18] deals with LOX IMVI.
Test [19] has as its system RXF 393.

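Where inhibition never reached the appropriate level, the endpoint shown equals the highest concentration tested. Otherwise, values were interpolated linearly from a five-concentration, 48-hour dose response in 96-well plates. GI50: concentration for 50% inhibition of growth.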 Activity calls are given as the source filed them. No stated cut-off is given here; in the data, active = GI50 up to about 1.1 µM and inactive = higher.

As for `COc1cccc(Nc2nc(-c3cccs3)nc3cc(OC)c(OC)cc23)c1`, the GI50 in test [1] is 18.9 µM (inactive); in test [2] it was 21.6 µM (inactive); in test [3], 55.6 µM (inactive); in test [4] it was 42.1 µM (inactive); in test [5], 30.4 µM (inactive); in test [6] it was 31.3 µM (inactive). Further, the GI50 was 37.6 µM (inactive) in [7]; 18.9 µM (inactive) in test [8]; 24.3 µM (inactive) in test [9]; 24.3 µM (inactive) in test [10]; 40.9 µM (inactive) in [11]; 23.4 µM (inactive) in test [12]. Also, the GI50 in [13] is 31.5 µM (inactive); in test [14], 53 µM (inactive); in test [15], 32.8 µM (inactive); in [16], 33.4 µM (inactive); in test [17] it was 19.1 µM (inactive).

Take `Cc1ccc2c(c1)-c1c(C#N)c(N)nc(-c3ccccc3)c1CCS2(=O)=O`: the GI50 was 8.71 µM (inactive) in [1]; 8.53 µM (inactive) in test [2]; 6.19 µM (inactive) in test [3]; 0.204 µM (active) in [4]; 4.85 µM (inactive) in [5]; 12.6 µM (inactive) in test [18]. The GI50 in test [6] is 1.72 µM (inactive); in test [7] it was 5.36 µM (inactive); in test [8], 1.12 µM (inactive); in test [9], 5.26 µM (inactive); in test [10], 5.47 µM (inactive); in test [11] it was 22.9 µM (inactive). The GI50 was 5.47 µM (inactive) in test [12]; 11.8 µM (inactive) in [13]; 5.53 µM (inactive) in [14]; 3.72 µM (inactive) in [15]; > 100 µM (inactive) in test [16]; 3.84 µM (inactive) in test [17].

For the molecule `O=C(O)/C=C\C(=O)c1ccc(Cl)cc1`, the GI50 was 79.8 µM (inactive) in test [1]; 21.3 µM (inactive) in [2]; 23.5 µM (inactive) in test [4]; 52.1 µM (inactive) in test [5]; 24.9 µM (inactive) in test [18]; > 55.8 µM (inactive) in [7]. Further, the GI50 in test [8] was > 100 µM (inactive); in test [10], 28.8 µM (inactive); in test [19], 21.5 µM (inactive); in test [11], 29.4 µM (inactive); in test [12] it was > 100 µM (inactive); in test [13], 18.7 µM (inactive). In addition, the GI50 in [14] was > 100 µM (inactive); in test [15] it was 44 µM (inactive); in test [16] it was 40.5 µM (inactive); in test [17] it was 29.9 µM (inactive).

As to `Cc1cc2c(cc1Cl)SC(NNCCO)=NS2(=O)=O`, the GI50 in test [2], in [3], in test [4], in test [5], in [18] and in test [6] was > 100 µM (inactive) each time. Further, the GI50 in [7], in [9], in [19], in test [11], in test [12] and in test [13] was > 100 µM (inactive) throughout. Also, the GI50 in [14] is > 100 µM (inactive); in test [15], > 100 µM (inactive); in test [16], > 100 µM (inactive); in [17] it was 97.7 µM (inactive).

In the case of `COc1ccc(C2=C[C@]3(O)CCCN3C[C@@H]2c2ccc(OC)c(OC)c2)cc1`, the GI50 in [1], in [2], in test [4], in test [5], in [18] and in test [7] was < 0.0001 µM (active) throughout. For the same molecule, the GI50 in [8] is < 0.0001 µM (active); in [10] it was < 0.0001 µM (active); in [19], > 0.01 µM (active); in test [11] it was < 0.0001 µM (active); in test [12] it was < 0.0001 µM (active); in test [13], < 0.0001 µM (active). The GI50 in test [14], in test [15], in test [16] and in test [17] was < 0.0001 µM (active) throughout.

`S=C1OC2C3C4CC5C3C(O1)C1C5C4C21` (stereo unspecified): the GI50 in test [1] is > 100 µM (inactive); in test [2], > 100 µM (inactive); in test [4], > 100 µM (inactive); in test [5], > 100 µM (inactive); in test [18], 74 µM (inactive); in test [7] it was > 100 µM (inactive). For the same molecule, the GI50 in [8], in test [10], in test [19], in test [11], in test [12] and in [13] was > 100 µM (inactive) in each case. Also, the GI50 in test [14], in [15], in [16] and in [17] was > 100 µM (inactive) each time.

Take `C=C=C(C(=O)OC)[S+]([O-])c1ccc([N+](=O)[O-])cc1[N+](=O)[O-]` (stereo unspecified): the GI50 in test [1] is > 100 µM (inactive); in [2], 37.2 µM (inactive); in [4], 20.7 µM (inactive); in [5] it was 33.7 µM (inactive); in [18], 21.5 µM (inactive); in [7], 54.6 µM (inactive). For the same molecule, the GI50 in test [8] is 14.2 µM (inactive); in test [10] it was 25.3 µM (inactive); in test [19], 30.7 µM (inactive); in test [11] it was 39 µM (inactive); in [12], > 92.7 µM (inactive); in [13], 34.7 µM (inactive). The GI50 in test [14] is > 84.7 µM (inactive); in test [15], 29 µM (inactive); in test [16] it was 46 µM (inactive); in test [17] it was 28.2 µM (inactive).

Regarding `CCOC(=O)C1=C(C)N(Cc2ccccc2)C2(O)C(OC)CC(=O)C3C(=O)N(c4ccccc4)C(=O)C132` (stereo unspecified), the GI50 in test [1] is 21.5 µM (inactive); in test [2] it was 10.4 µM (inactive); in [3] it was 3.9 µM (inactive); in [4], 3.93 µM (inactive); in test [5], 8.75 µM (inactive); in test [18], 3.39 µM (inactive). The GI50 in test [6] is 5.05 µM (inactive); in test [7], 15.1 µM (inactive); in test [8], 5.98 µM (inactive); in [9], 13.8 µM (inactive); in test [10], 7.41 µM (inactive); in test [19], 5.69 µM (inactive). Further, the GI50 was 9.33 µM (inactive) in test [11]; 15.2 µM (inactive) in test [12]; 7.33 µM (inactive) in [13]; 22.4 µM (inactive) in [16]; 5.66 µM (inactive) in [17].

Turning to `CC(=O)CCC(=O)CC(O)(C(F)(F)F)C(F)(F)F`, the GI50 in test [1] is 5.01 µM (inactive); in [2], 24.8 µM (inactive); in test [3] it was 20.5 µM (inactive); in test [4] it was 18.5 µM (inactive); in test [5] it was 15.9 µM (inactive); in test [6], 19.4 µM (inactive). The GI50 is 11.6 µM (inactive) in [7]; 25.3 µM (inactive) in [9]; 18.6 µM (inactive) in [19]; 22.3 µM (inactive) in test [11]; 12.4 µM (inactive) in [12]; 22.7 µM (inactive) in [13]. Moreover, the GI50 in test [14] is > 10 µM (inactive); in [15], 27.5 µM (inactive); in test [16] it was 22.6 µM (inactive); in test [17], 16.8 µM (inactive).

For `COc1cc(Br)c(/C=N/N=C(\N)NO)cc1OC`, the GI50 in test [1] was 32.8 µM (inactive); in [2], 9.35 µM (inactive); in test [4], 26.9 µM (inactive); in test [5] it was 15.5 µM (inactive); in test [18], 17.6 µM (inactive); in test [7], 10.9 µM (inactive). For the same molecule, the GI50 in test [8] is 15.2 µM (inactive); in test [10] it was 33.2 µM (inactive); in test [19], 21.9 µM (inactive); in test [11] it was 8.87 µM (inactive); in test [12], 28.5 µM (inactive); in test [13], 17.5 µM (inactive). In addition, the GI50 in test [14] is 10.6 µM (inactive); in test [15], 21.3 µM (inactive); in test [16] it was 7.69 µM (inactive); in [17], 11.1 µM (inactive).

For `CN(C)NC1=C([N+](=O)[O-])C=NN(c2ccccc2)C1`, the GI50 in test [1] was 20.9 µM (inactive); in test [2], 1.73 µM (inactive); in [4], 2.04 µM (inactive); in [5] it was 2.52 µM (inactive); in test [18] it was 1.59 µM (inactive); in test [7], 3.84 µM (inactive). Moreover, the GI50 in test [8] is 0.177 µM (active); in test [10], 1.85 µM (inactive); in [19], 1.93 µM (inactive); in test [11] it was 1.85 µM (inactive); in test [12], 1.81 µM (inactive); in [13] it was 1.81 µM (inactive). In addition, the GI50 in test [14] was 1.97 µM (inactive); in test [15], 1.73 µM (inactive); in [16] it was 3.19 µM (inactive); in test [17] it was 1.71 µM (inactive).

`N#Cc1c(-c2ccco2)cc(-c2ccc(N)cc2)[nH]c1=O`: the GI50 in [1], in test [2], in test [4], in [5], in test [18] and in [7] was > 100 µM (inactive) throughout. Moreover, the GI50 in [8], in test [10], in test [19], in test [11], in test [12] and in [13] was > 100 µM (inactive) each time. Further, the GI50 in [14], in [15], in [16] and in [17] was > 100 µM (inactive) each time.
